Data on 81 compounds can be found in the METLIN SMRT retention time set (Domingo-Almenara et al. 2019).

Molecules are shown by their SMILES.

This data set can be described thus: gradient 5% acetonitrile 3 min, to 50% in 2 min, to 85% in 15 min, held 3 min, 100 µL/min. Particulars: column: Zorbax Extend-C18 2.1 x 50 mm; eluents: water / acetonitrile, 0.1% formic acid. Put shortly: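 In both positive and negative ionization mode, a quadrupole time-of-flight mass spectrometer coupled to HPLC analyzed pure standards run in mixtures of ~100 molecules. The Zorbax Extend-C18 column (2.1 × 50 mm, 1.8 μm) was operated at 100 μL/min with water and acetonitrile, each containing 0.1% formic acid. The dead volume was 40 μL and the dwell volume 900 μL. Retention time came from adduct peaks that were computationally picked and individually inspected by hand.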
Compound `CCCS(=O)(=O)c1ccc(NC2CCN(Cc3ccccc3)CC2)nn1` showed an RP-LC retention time of 602 s.
With `CCOC(=O)N1CCN(C(=O)c2sc(NS(=O)(=O)c3ccccc3)nc2C)CC1`, the RP-LC retention time amounted to 651 s.
Then `O=C(Nc1ccc(S(=O)(=O)N2CCCCC2)cc1)c1cc(-c2ccccc2)on1`, with 598 s; and `Cc1ccc2[nH]c(C(=O)NC3CCN(C)CC3)cc2c1`, with 845 s; and `Cc1cc(C(=O)N2CC3CC(C2)c2cccc(=O)n2C3)c(C)o1` (stereo unspecified), with 590 s.
For the compound `CC(=O)N1CCC2(CC1)Oc1ccccc1C1CC(c3ccc4c(c3)OCO4)=NN12` (stereo unspecified), the RP-LC retention time was determined as 783 s.
In turn, `Cc1nn(-c2ccc(C(=O)N3CCOCC3)cc2)c2c1C(=O)CC(C)(C)C2` had an RP-LC retention time of 689 s.
Next, `CCn1nnc2ccc(-c3noc(-c4ccccc4)n3)cc21`: 1040 s.
As for `CC(NC(=O)c1ccc(-c2cncnc2)nc1)c1ccccc1` (stereo unspecified), the RP-LC retention time came out at 715 s.
Then `COc1ccc(N2C=C(C#N)S(=O)(=O)c3c(F)cccc32)cc1OC`, with 844 s; and `O=C(NC1CCN(C(=O)C2CC2)C1)C1CCC1` (stereo unspecified), with 606 s.
Turning to `Cc1cccc(N2C(=O)CN(Cc3ccc(F)cc3)[C@H]3CS(=O)(=O)C[C@H]32)c1`, the RP-LC retention time turned out to be 812 s.
In the case of `CC(C)NC(=O)Cn1cccc(-c2nc(-c3ccc(Cl)cc3)no2)c1=O`, the RP-LC retention time came to 807 s.
Turning to `COc1ccc(C(=O)NC2CCN(c3cc(C)cc(C)c3)C2=O)cc1F` (stereo unspecified), the RP-LC retention time is 901 s.
For the compound `CC(C)(C)c1ccc(OCC(O)CN)cc1` (stereo unspecified), the RP-LC retention time amounted to 585 s.
`CCOc1ccc(NC(=O)CSc2nnc3c4cc(-c5ccc(C)c(C)c5)nn4ccn23)cc1` returned an RP-LC retention time of 973 s.
Consider `CCc1ccc(S(=O)(=O)N2CCN(c3cc(C)nc(NC4CCCCC4)n3)CC2)cc1`, for which the RP-LC retention time came to 876 s.
As for `CC(CCc1ccccc1)NC(=O)c1ccc(-n2cccn2)nc1` (stereo unspecified), the RP-LC retention time came out at 858 s.
Take `CC(Oc1ccccc1)C(=O)N1CCCn2nc(-c3cccs3)cc2C1` (stereo unspecified): the RP-LC retention time is 844 s.
Compound `CCOC(=O)N1CCC(NC(=O)Cn2cc(-c3ccc(C)cc3)oc2=O)CC1` came in with an RP-LC retention time of 772 s.
As to `COc1nn(C)cc1C(=O)Nc1nnc(-c2csc(C)n2)o1`, the RP-LC retention time was 578 s.
With `Cc1cc(N2CCN(C)CC2)nc(N2CCN(C(=O)c3ccc(C(C)(C)C)cc3)CC2)n1`, the RP-LC retention time was determined as 586 s.
As for `COc1ccc(C2(C(=O)N3CCC4(CC3)CC(C)(O)CCO4)CC2)cc1` (stereo unspecified), the RP-LC retention time amounted to 707 s.
Take `COc1cccc(CCC(=O)N2CCc3nc[nH]c3C2)c1`: the RP-LC retention time was 575 s.
As to `O=C1[C@H]2CN(Cc3cc(Cl)ccc3F)C[C@H]2C(=O)N1CCc1ccccc1`, the RP-LC retention time was 840 s.
Turning to `CCOCCCNC(=O)N1CCCCCC1c1ccc(C)cc1` (stereo unspecified), the RP-LC retention time worked out at 954 s.
`Cc1cc(NC(=O)Cn2cnc(-c3ccc(Cl)cc3)cc2=O)no1` yielded an RP-LC retention time of 735 s.
Consider `O=C(CC1COc2ccccc2NC1=O)Nc1ccc2c(c1)OCCO2` (stereo unspecified), for which the RP-LC retention time was 688 s.
`CCOC(=O)c1nc(NCCN(C)Cc2ccccc2)c2c(C)noc2n1` had an RP-LC retention time of 623 s.
`Cc1noc(-c2csc(C(=O)N3CCCC3)n2)n1`: the RP-LC retention time turned out to be 688 s.
Next, `CCN(CC)CCCNC(=O)C1CCN(c2nc3cccnc3s2)CC1`: 570 s; `COc1ccc(NC(=O)CSc2cc(NCc3ccccc3Cl)ncn2)c(OC)c1`: 933 s; `CCn1c(CCc2cccc(NS(=O)(=O)c3cnc[nH]3)c2)nc2ccccc21`: 524 s.
For the compound `CN(C)S(=O)(=O)c1ccc2c(c1)N(CC(=O)NCc1ccc(Cl)cc1)C(=O)C1CCCCN21` (stereo unspecified), the RP-LC retention time was determined as 932 s.
`O=C(CCc1ccc2nc[nH]c2c1)Nc1ccc2c(c1)OCCO2` returned an RP-LC retention time of 591 s.
Next, `CCSc1nnc(NC(=O)Cn2c(-c3cnccn3)nc3ccccc32)s1`: 701 s; `O=c1c2ccccc2c(-c2nc(-c3cccnc3)no2)cn1-c1ccc(Cl)cc1`: 1120 s.
In turn, `CCN(CC)c1nc(-c2ccccc2F)nc2ccccc12` gave an RP-LC retention time of 700 s.
Take `Cc1cccc(CNC(=O)c2cccc(C3CCCN(C(=O)NC(C)C)C3)c2)c1` (stereo unspecified): the RP-LC retention time stood at 894 s.
Compound `CCOc1ccc(-c2nc(CN3CCN(C(=O)NC4CCCC4)CC3)c(C)o2)cc1` showed an RP-LC retention time of 703 s.
On to `O=C1NCCCn2cc(S(=O)(=O)NCc3ccc(F)cc3Cl)cc21`, for which the RP-LC retention time is 686 s.
`COc1ccc(Cl)cc1S(=O)(=O)N(C)C1CCc2nn(CC3CC3)c(=O)n2CC1` (stereo unspecified): the RP-LC retention time came out at 958 s.
Next, `Cc1sc2ccn(C)c(=O)c2c1C(=O)NCc1ccc(F)cc1Cl`: 827 s.
In the case of `CCOC(=O)c1[nH]c(C)c(CCC(=O)N2CCC(C(=O)NCCc3ccccc3)CC2)c1C`, the RP-LC retention time was found to be 795 s.
Then `Cc1nnc(N2CCCC(C(=O)NCCc3ccccc3)C2)c2nn(-c3ccccc3)c(C)c12` (stereo unspecified), with 726 s; and `CCOC(=O)c1nc(NCC2CCN(Cc3ccccc3F)CC2)c2ccccc2n1`, with 598 s.
Then `CCn1c(=O)c2ccn(CC(=O)N3CCN(c4ccc(Cl)cc4)CC3)c2n(CC)c1=O`, with 787 s; and `COc1ccc(OC)c(NC(=O)N2CCC(CC(=O)NCc3ccc(F)cc3)CC2)c1`, with 803 s.
Take `Cc1ccc(Nc2nc(C)cc(N3CCN(C(=O)Nc4cccc(C)c4)CC3)n2)cc1`: the RP-LC retention time was determined as 717 s.
`Cc1cccc2nnc(N3CCCC(C(=O)NCCC(C)C)C3)n12` (stereo unspecified) returned an RP-LC retention time of 586 s.
In turn, `O=C(NCc1ccc(Cl)cc1)c1c(O)c2cccnc2[nH]c1=O` had an RP-LC retention time of 1000 s.
Compound `COc1cc(-c2nc(Nc3ccc(C)cc3)c3ccccc3n2)cc(OC)c1OC` displayed an RP-LC retention time of 796 s.
`Cc1ccc(CNC(=O)C2(C)CN(S(C)(=O)=O)CC(=O)N2CCc2ccccc2)cc1` (stereo unspecified) registered an RP-LC retention time of 856 s.
Then `Cc1ccc(S(=O)(=O)N2CCCCC2)cc1-c1nnc(-c2ccccc2)o1`, with 1130 s.
Next, `Cc1cnc(C(=O)N[C@@H]2CCC[C@@H]2C(=O)NC2CCCC2)cn1`: 638 s; `O=S(=O)(NCc1cccnc1-c1ccc(F)cc1)c1ccc(F)cc1`: 737 s; `O=C(NCc1ccccc1Br)C1CCCN(c2cnc3nccnc3c2)C1` (stereo unspecified): 728 s.
With `CCn1ccc2c(cc(C(=O)Nc3ccc(Br)cc3)n2C)c1=O`, the RP-LC retention time is 844 s.
Take `CC1=C(c2ccc(C)cc2)S(=O)(=O)N=C1N1CCCN(C(=O)NC(C)(C)C)CC1`: the RP-LC retention time came to 836 s.
`Cc1cccc2nnc(N3CCC(C(=O)NCC4CCCCC4)CC3)n12` yielded an RP-LC retention time of 709 s.
With `COc1cccc(-n2c(CN3CCN(c4ccccn4)CC3)nc3ccc([N+](=O)[O-])cc3c2=O)c1`, the RP-LC retention time amounted to 647 s.
The compound `Cc1nc(-c2cc(S(=O)(=O)NCc3ccc(OC(C)C)cc3)c(C)s2)cs1` came in with an RP-LC retention time of 1080 s.
With `CCOC(=O)C1=C(N)Oc2cc(C)n(CCN(C)C)c(=O)c2C1c1ccccc1` (stereo unspecified), the RP-LC retention time was found to be 572 s.
With `COc1cccc(-c2nnc(N)o2)c1`, the RP-LC retention time was 674 s.
Then `COc1ccc(C(=O)N2CCC(Oc3cc(N(C)C)ncn3)C2)cc1` (stereo unspecified), with 650 s; and `CCOc1ccc(-c2noc(CN3N=NC4C(=O)N(c5ccc(C)c(F)c5)C(=O)C43)n2)cc1OC` (stereo unspecified), with 801 s.
Turning to `Cc1nn(CC(=O)NCc2ccc(F)cc2Cl)c(=O)c2noc(C)c12`, the RP-LC retention time is 721 s.
Turning to `COc1ccc(-c2nc(-c3cccc(-c4ccnn4C)c3)no2)c(C)c1`, the RP-LC retention time was 1210 s.
Take `Cc1cccc(CN2CCn3c(nnc3[C@@H]3C[C@@H](O)CN3C)C2)c1`: the RP-LC retention time came out at 590 s.
Then `Cc1ccc(CNC(=O)C2CCN(S(=O)(=O)c3cc(C(=O)N4CCOCC4)cs3)CC2)cc1`, with 765 s; and `Cn1cc(-c2nc(C(=O)Nc3cccc(Cl)c3)cs2)c2cccnc21`, with 1110 s; and `CCN(CC)S(=O)(=O)c1cc(-c2nc(C(C)(C)C)cs2)cs1`, with 1350 s.
On to `COc1cc(NC(=O)CCc2c(-c3ccc(F)cc3)nc3ccccn23)cc(OC)c1`, for which the RP-LC retention time came out at 672 s.
Then `CCc1ccc(NC(=O)CSc2cc(N3CCCCC3C)ncn2)cc1` (stereo unspecified), with 1100 s.
Then `CCN1CCn2cc(S(=O)(=O)NCc3cccc(C(F)(F)F)c3)cc2C1=O`, with 781 s; and `O=C(CC(=O)N1CCN(c2ccccc2)CC1)Nc1ccc2nc3n(c(=O)c2c1)CCCCC3`, with 720 s; and `O=C(NCCc1ccccc1)NCCc1ccsc1`, with 764 s.
Consider `Cc1cc(SCC(=O)Nc2ccccc2Br)nc(-c2ccc(F)cc2)n1`, for which the RP-LC retention time turned out to be 1170 s.
Turning to `CN(C)C(CNC(=O)NCc1cccs1)c1cn(C)c2ccccc12` (stereo unspecified), the RP-LC retention time came out at 586 s.
Next, `CCC1CN(C(=O)N2CCC(C(=O)NCCN3CCCC3)CC2)c2cc(C)ccc2O1` (stereo unspecified): 649 s; `O=C(NCc1nc2ccccc2[nH]1)c1coc(NC(=O)c2cccs2)n1`: 556 s.
